The nature of data set [1]: Toxicity in Galleria mellonella larvae assessed as melanization of larvae at 16 ug/ml measured every 24 hrs upto 5 days relative to control. The following applies: 120 h, at 16 µg/mL, time < 5 day.
Data set [2] relates to Candida albicans. The data set can be described thus: Induction of reactive oxygen species generation in Candida albicans CNB1/cnb1delta mutant assessed as increase in ROS level at 16 ug/ml incubated for 18 hrs by DCFH-DA staining based flow cytometric analysis (reference value: 3.8+/- 4.2%). It counts as functional. Conditions: dose 16 µg/ml. A general note: In flow cytometry, cells or beads pass a laser one at a time.

The subject of data set [3] is Candida albicans. The data set can be described thus: Effect on HSP90 expression in Candida albicans BWP17 assessed as fold increase in relative expression of HSP90 gene level at 2 ug/ml incubated for 18 hrs in presence of calcium chloride by RT-PCR analysis. It counts as functional. The following applies: dose 2.0 µg/ml.
The test system of data set [4] is Candida albicans. The data set can be described thus: Induction of apoptosis in Candida albicans SC5314 non-protoplast cells assessed as necrotic cells at 16 ug/ml incubated for 18 hrs by PI/Annexin V staining based flow cytometry assay. It counts as functional. The following applies: dose 16 µg/ml.
Data set [5] relates to Candida albicans. The data set can be described thus: Antifungal activity against Candida albicans SC5314 assessed as inhibition of fungal growth at 0.25 ug/ml incubated for 48 hrs by M27-A3 based microdilution method relative to control. It is filed as functional. In general terms: Dilution methods test growth across graded concentrations, often in twofold steps.
The subject of data set [6] is Candida albicans. Description: Antifungal activity against Candida albicans SC5314 assessed as inhibition of fungal growth at 2 ug/ml incubated for 48 hrs by M27-A3 based microdilution method relative to control. It counts as functional.
In data set [7] the test system is Candida albicans. Description: Antifungal against Candida albicans cnb1delta/cnb1delta mutant biofilm assessed as increase cell membrane permeability at 16 ug/ml incubated for 18 hrs by Rho123 and Hoechst 33342 double staining based confocal laser scanning microscopic analysis. It is filed as functional, organism-based. Conditions: dose 16.0 µg/ml.
Data set [8] relates to Candida albicans. Description: Antifungal activity against Candida albicans SC5314 assessed as inhibition of fungal growth at 0.5 ug/ml incubated for 18 hrs by M27-A3 based microdilution method relative to control. It counts as functional.
Data set [9] relates to Candida albicans. Description: Induction of apoptosis in Candida albicans SC5314 protoplast cells assessed as necrotic cells at 16 ug/ml incubated for 18 hrs by PI/Annexin V staining based flow cytometry assay. The following applies: dose 16 µg/ml. It is filed as functional.
Data set [10] concerns Candida albicans. The data set can be described thus: Effect on HSP90 expression in Candida albicans cnb1delta/CNB1 mutant assessed as fold increase in relative expression of HSP90 gene level at 2 ug/ml incubated for 18 hrs in presence of calcium chloride by RT-PCR analysis. It is filed as functional. Conditions: dose 2.0 µg/ml.
The next data set has as its system Vero. The data set can be described thus: Cytotoxicity against African green monkey Vero cells at > 64 ug/ml measured after 24 hrs by XTT assay. It counts as toxicity, cell-based. The following applies: chlorocebus sabaeus, dose > 64 µg/ml. A general note: Tetrazolium assays rely on reduction of a dye to a coloured formazan, in cell work by metabolically active cells.

In data set [11] the test system is Candida albicans. Description: Antifungal activity against Candida albicans SC5314 assessed as inhibition of fungal growth at 0.0625 ug/ml incubated for 48 hrs by M27-A3 based microdilution method relative to control. It counts as functional.
Data set [12] deals with Candida albicans. The data set can be described thus: Antifungal activity against Candida albicans SC5314 assessed as inhibition of fungal growth at 0.125 ug/ml incubated for 18 hrs by M27-A3 based microdilution method relative to control. It is filed as functional.
Data set [13] deals with Candida albicans. Description: Fungicidal activity against Candida albicans SC5314 assessed as inhibition of fungal growth incubated for 48 hrs by M27-A3 based microdilution method. It is filed as functional.
Data set [14] relates to Candida albicans. The data set can be described thus: Antifungal against Candida albicans cnb1delta/cnb1delta mutant biofilm assessed as oxidative stress by measuring appearance of spherical cells at 16 ug/ml incubated for 18 hrs by PI/acridine orange double staining based confocal laser scanning microscopic analysis. It is filed as functional, organism-based. The following applies: dose 16.0 µg/ml.

The test system of data set [15] is Candida albicans. Description: Inhibition of ergosterol biosynthesis in Candida albicans SC5314 assessed as reduction in ergosterol level incubated for 18 hrs by spectrophotometric analysis. It is filed as functional. The following applies: dose 0.06-32 µg/ml, DDE = dose-dependent effect.
The test system of data set [16] is Candida albicans. The data set can be described thus: Antifungal activity against Candida albicans assessed as inhibition of fungal growth measured after 48 hrs in presence of exogenous ergosterol by M27-A3 based broth microdilution. It is filed as functional.
Data set [17] has as its system Candida albicans. The data set can be described thus: In vivo antifungal activity against Candida albicans SC5314 infected in Galleria mellonella larvae assessed as survival of larvae by measuring health score index at 16 ug/ml administered 1 hr post infection measured within 5 days by Hematoxylin and eosin staining. It is filed as functional, organism-based. Conditions: dose 16.0 µg/ml, time 5.0 day.

Data set [18] has as its system Candida albicans. The data set can be described thus: Antifungal activity against Candida albicans assessed as inhibition of fungal growth measured after 48 hrs by M27-A3 based broth microdilution. It counts as functional.
Data set [19] in a line: Toxicity in Galleria mellonella larvae assessed as change in morphology at 16 ug/ml measured after 5 days by Hematoxylin and eosin staining. Conditions: 120 h, dose 16 µg/ml, time 5 day.
Data set [20] deals with Candida albicans. The data set can be described thus: Effect on HSP90 expression in Candida albicans cnb1delta/cnb1delta mutant assessed as fold increase in relative expression of HSP90 gene level at 2 ug/ml incubated for 18 hrs in presence of calcium chloride by RT-PCR analysis. It counts as functional. The following applies: dose 2.0 µg/ml.

The record followed here is ChEMBL document CHEMBL5154709, “Tetrazole derivatives bearing benzodiazepine moiety-synthesis and action mode against virulence of Candida albicans” (Eur J Med Chem, 2022).

Converted amounts (≈) assume the structure as drawn. The source made the active and inactive calls. The calls are words filed in the database; no cut-off is given here.

As to `O=C1CN=C(c2ccccc2Br)c2cc(F)ccc2N1CCCn1nnc(-c2ccccc2Cl)n1`, the Activity in data set [1] is 7%; with Candida albicans [2], 4.9%; in the data set with Candida albicans [4] it was 81.37%; in the data set with Candida albicans [9], 78.5%; in the data set with Vero it was “Toxic”; in the data set with Candida albicans [15], “Dde”. In data set [19], the Activity entry is reported as “Non-Toxic”. Also, the fold change (FC) with Candida albicans [3], in the data set on Candida albicans [10] and in the data set on Candida albicans [20] was 4 each time. Further, the inhibition at 0.25 µg/mL in the data set with Candida albicans [5] is 100%. Also, in the data set on Candida albicans [6], the inhibition at 2 µg/mL was 100%. In addition, the result in the data set with Candida albicans [7], with Candida albicans [14] and in the data set with Candida albicans [17] was Active. In addition, in the data set with Candida albicans [8], the inhibition at 0.5 µg/mL was 99.2%. For the same compound, the inhibition at 0.0625 µg/mL in the data set with Candida albicans [11] worked out at 99.4%. In the data set with Candida albicans [12], the inhibition at 0.125 µg/mL worked out at 99.3%. In addition, in the data set on Candida albicans [13], the “inhibition (INH)” value is given as 99.6%. For the same compound, the minimum inhibitory concentration (MIC) with Candida albicans [16] was 2.56 µg/mL; with Candida albicans [18] it was 64 µg/mL (≈ 116 µM).

For orientation: inhibition means how much of the control response was suppressed. For orientation: MIC means the lowest concentration that inhibits growth of the organism.
